The term bioavailability denotes dose-corrected exposure relative to a reference, in per cent. The term IC50 denotes the concentration needed to halve the response being measured.

Molecules are shown by their SMILES. Where two headings read alike, the source gives them in different places.

Data on two molecules can be found in patent US20260297065A1, “AROMATIC SUBSTITUENT-CONTAINING (HETERO) ARYL-IMIDAZOLE COMPOUND, AND PREPARATION METHOD THEREFOR AND USE THEREOF” (OPEN SOURCE THERAPEUTICS, priority 2022, published 2026).

Data set [1] can be described thus: in vivo pharmacokinetics in male ICR mice, IV and PO. Details: species or system mouse (male ICR mice). To be noted: for clearance / half-life / AUC: mouse plasma; for clearance: read-out: intravenous injection administration (IV) C1; for AUC: read-out: Oral administration by gavage (PO) AUC; for bioavailability: plasma, mouse, PO 2 mpk, IV 1 mpk. The text has this:
This example relates to the evaluation of the pharmacokinetic properties of (hetero)aryl imidazole compounds containing an aromatic substituent. Specifically, this experiment evaluated the in vivo pharmacokinetic properties of some of the (hetero)aryl imidazole compounds with an aromatic substituent synthesized in Example 1 in mice under intravenous (IV) and oral (PO) administration.
The animals used in this experiment were male ICR mice, which were obtained from Beijing Weitonglihua Experimental Animal Technology Co., Ltd. IV/PO administration was performed with a single drug or a combination of drugs (Cassette, no more than five drugs), the solvent was 5% DMSO+10% Solutol+85% Saline, the compound concentration was 0.2 mg/mL, and the IV/PO administration volume was 5/10 mL/kg, respectively. The animals in the oral administration group were fasted overnight before administration and fed 4 hours after administration. After administration, blood was collected from the cheek at the set time of the experiment. About 50 μL was collected for each sample and anticoagulated with sodium heparin. After collection, the blood was placed on wet ice and centrifuged within 1 hour to separate the plasma (6000 rpm, 3 minutes, 2-8° C.). Plasma samples were stored at −80° C. before analysis. The plasma samples were diluted and analyzed by LC-MS/MS to determine the blood drug concentration data in the samples at different time points, and Phoenix WinNonlin 8.2.0 was used to calculate the pharmacokinetic parameters.

For data set [2], the target named is T1, soluble epoxide hydrolase (sEH) (Homo sapiens, UniProt P34913).
T1 sequence (P34913 1-555): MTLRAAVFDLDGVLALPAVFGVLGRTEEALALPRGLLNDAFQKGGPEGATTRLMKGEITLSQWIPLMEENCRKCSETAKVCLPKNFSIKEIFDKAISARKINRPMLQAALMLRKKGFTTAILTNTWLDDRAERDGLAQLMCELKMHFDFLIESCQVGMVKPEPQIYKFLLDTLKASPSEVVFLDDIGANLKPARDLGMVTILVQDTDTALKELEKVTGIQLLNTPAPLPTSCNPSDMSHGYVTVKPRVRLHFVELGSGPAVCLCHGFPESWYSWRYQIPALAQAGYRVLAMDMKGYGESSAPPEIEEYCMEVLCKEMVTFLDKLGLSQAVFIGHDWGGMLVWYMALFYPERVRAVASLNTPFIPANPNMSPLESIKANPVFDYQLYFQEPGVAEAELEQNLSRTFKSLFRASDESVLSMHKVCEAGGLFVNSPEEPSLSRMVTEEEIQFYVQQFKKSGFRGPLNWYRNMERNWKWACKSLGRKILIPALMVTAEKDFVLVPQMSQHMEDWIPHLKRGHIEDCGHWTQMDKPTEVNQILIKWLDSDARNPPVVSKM
The experiment in a line: in vitro biochemical activity test, sEH enzyme inhibition with EET substrate (LC-MS). The conditions noted are these: 90 min pre-incubation at room temperature, 60 min reaction.

[3] abbreviates: 1 mg/kg, IV, 1 mpk, read-out: intravenous injection administration (IV) T1/2 (converted).
The mark [4] stands for this setting: 2 mg/kg, PO, 2 mpk, read-out: Oral administration by gavage (PO) T1/2 (converted).

Take `Nc1cc(Cl)c(-c2cc3[nH]c(-c4ccc(C(F)(F)F)cc4)nc3cc2F)cn1` [Compound 61, 2-(4-(trifluoromethyl)phenyl)-6-(6-amino-4-chloropyridin-3-yl)-5-fluoro-1H-benzo[d] imidazole]: the clearance in data set [1] (1 mg/kg, IV, 1 mpk) was 1 mL/min/kg. Also, the half-life in data set [1] (setting [3]) is 8.5 h; in data set [1] (setting [4]) it was 10.2 h. Further, the AUC in data set [1] (2 mg/kg, PO, 2 mpk) turned out to be 26100 ng·h/mL. In data set [1] (2 mg/kg), the bioavailability was 83%.
`Cc1nc(N)ncc1-c1cc2nc(-c3ccc(C(F)(F)F)cc3)[nH]c2c(F)c1F` [Compound 8, 5-(4,5-difluoro-2-(4-(trifluoro-methyl)phenyl)-1H-benzo[d]imidazol-6-yl)-4-methylpyr-imidine-2-amine]: the IC50 in data set [2] was found to be 0.065 nM. In addition, the clearance in data set [1] (1 mg/kg, IV, 1 mpk) stood at 1.3 mL/min/kg. In addition, the half-life was 5.9 h in data set [1] (setting [3]) and 6.4 h in data set [1] (setting [4]). In addition, in data set [1] (2 mg/kg, PO, 2 mpk), the AUC was 19600 ng·h/mL. In addition, the bioavailability in data set [1] (2 mg/kg) came out at 76%.
